In US9447136B2, “Semisynthetic derivatives of Nystatin A1” (BLIRT S.A., priority 2012, dated 2016):
Read-outs that look alike come from different tables or passages of the source.

Tests used:
[1] = test system: Candida albicans ATCC 10231; experiment: Antifungal activity in vitro, serial dilution in RPMI 1640; assay type: cell-based; conditions: Table 2A, RPMI 1640, pH 7.0; for Antifungal activity Candida albicans ATCC 10231 IC50: A531 50% of control; for Antifungal activity Candida albicans ATCC 10231 MIC: A531 at most 20% of control
Experimental: (§1) For the determination of antifungal activity in vitro we used method of serial dilution in buffered medium RPMI 1640, pH 7.0, in a 96-wells microplates, according to the standard procedure (National Committee for Clinical Laboratory Standards. Reference method for broth dilution antifungal susceptibility testing of yeast, approved standard, 2nd ed. M27-A2 vol. 22 Wayne, Pa., 2002). The optical density of cells suspension was measured using a microplates reader (Victor^3, Perkin-Elmer) at the wavelength λ=531 nm (A531). On the basis of obtained results the diagrams of relation between A531 values and concentration of examined compound were made. From these graphs, the IC50 values were read, which were the interpolated concentrations of a tested compound, at which the A531 value was exactly 50% of the A531 value for the control sample. Moreover, MIC values, that are the lowest concentration of tested compound at which the A531 value were at most 20% of the A531 value measured for the control sample.

[2] = test system: Candida glabrata DSM 11226; experiment: as above; assay type: cell-based; conditions: Table 2A; RPMI 1640, pH 7.0
Experimental: as §1

Candida krusei DSM 6128 = experiment: as above; assay type: cell-based; conditions: Table 2A; RPMI 1640, pH 7.0
Experimental: as §1

[3] = test system: Candida lusitaniae DSM 70102; experiment: as above; assay type: cell-based; conditions: Table 2A; RPMI 1640, pH 7.0
Experimental: as §1

[4] = test system: Candida tropicalis KKP 334; experiment: as above; assay type: cell-based; conditions: Table 2A; RPMI 1640, pH 7.0
Experimental: as §1

[5] = test system: Saccharomyces cerevisiae ATCC 9763; experiment: as above; assay type: cell-based; conditions: Table 2A; RPMI 1640, pH 7.0; A531 at most 20% of control
Experimental: as §1

Human erythrocytes = experiment: Hemotoxicity (hemolytic activity); conditions: for Hemotoxicity BEH50: 37° C., 30 minutes, concentration causing 50% hemolysis, maximum concentration 300 μg/ml
Experimental: The hemotoxicity determination were carried out by the serial dilutions method, according to the procedure described earlier (Ślisz, M., et al., E., J Antibiot 57: 669-678 (2004)). Human erythrocytes were suspensed in the solution of saline to obtain a cell density of suspension 2×10^7/ml. Suitable amounts of diluted solutions of compounds were added to the cell suspension in tubes and were incubated at 37° C. for 30 minutes and then centrifuged (1700×g, 10 min, 4° C.). The concentration of hemoglobin in supernatant after centrifugation of erythrocytes suspension were determined by measuring the absorbance at wavelength λ=540 nm (A540). The maximum level of hemolysis was obtained after incubation of cells suspension in the presence of 0.1% Tritone X-100 (control sample). […] From these graphs, the EH50 values were read which are the interpolated concentrations of compound, for which the A540 value is exactly 50% of the A540 value measured for the control sample.

CCRF-CEM = experiment: Cytotoxic activity against mammalian cells in tissue culture (MTT); assay type: cell-based, human
Experimental: (§2) For examinations were used selected cell lines: CCRF-CEM—human acute lymphoblastic leukemia; HepG2—human malignant hepatoma; LLC-PK1—epithelial cell of pig kidney; All lines were from ATCC collection.
(§3) The study are conducted using described below methods of culturing and determination of cytotoxic activity.
(§4) CCRF-CEM cells were cultured in medium RPMI 1640+10% fetal bovine serum (FBS), LLC-PK1 cells in medium Medium 199+3% FBS, HepG2 cells in medium MEM+10% FBS. All media contained 100 μg/ml of penicillin G and streptomycin. 24-wells microplates containing appropriate medium were inoculated with the cells in amount of 1.2×10^4 cells/well and allowed to stand overnight. Next, tested compounds as solution in dimethylsulfoxide (DMSO) were added in volume of 10 μl (serial 2× dilutions). To control well 10 μl of DMSO was added. Microplates with cell suspensions were incubated for 120 h at temperature 37° C. at atmosphere of 95%/5% CO2. After incubation, to all wells 200 μl of solution of 3-(4,5-dimethylthiazole-2-yl)-2,5-diphenylotetrazole bromide (MTT) in PBS (4 mg/ml) was added and plates were further incubated for 4 h at 37° C. Next, to dissolve crystals of formazane 1 ml of DMSO was added and absorption of solutions was measured at the wavelength λ=540 nm (A540), using a microplates reader (Victor^3, Perkin-Wallac). […] From these graphs IC50 values were read, that is concentration of tested compound in the presence at which A540 value is half of A540 value measured in the control sample.

HepG2 = experiment: as above; assay type: cell-based, human
Experimental: as §2, §3, §4

LLC-PK1 = experiment: as above; assay type: cell-based, pig
Experimental: as §2, §3, §4

[6] = human erythrocytes, concentration causing 10% of hemolysis

Compound | Antifungal activity Candida albicans ATCC 10231 IC50 [1] | Antifungal activity Candida albicans ATCC 10231 MIC [1] | Antifungal activity Candida glabrata DSM 11226 MIC [2] | Antifungal activity Candida krusei DSM 6128 MIC (Candida krusei DSM 6128) | Antifungal activity Candida lusitaniae DSM 70102 MIC [3] | Antifungal activity Candida tropicalis KKP 334 MIC [4] | Antifungal activity Saccharomyces cerevisiae ATCC 9763 MIC [5] | EH10 (Human erythrocytes) | Hemotoxicity BEH50 (Human erythrocytes; human erythrocytes) | EH10 (Human erythrocytes; [6]) | Cytotoxicity IC50 CCRF-CEM (CCRF-CEM; CCRF-CEM, 120 h, MTT) | Cytotoxicity IC50 HepG2 (HepG2; HepG2, 120 h, MTT) | Cytotoxicity IC50 LLC-PK1 (LLC-PK1; LLC-PK1, 120 h, MTT) | Cytotoxicity IC50 CCRF-CEM (CCRF-CEM) | Cytotoxicity IC50 HepG2 (HepG2) | Cytotoxicity IC50 LLC-PK1 (LLC-PK1) | % of hemolysis at the concentration 60 μg ml^−1 (Human erythrocytes) | % of hemolysis at the concentration 60 μg ml^−1 (Human erythrocytes; human erythrocytes, 60 μg ml^−1)
C[C@@H]1[C@H](O)[C@@H](C)/C=C/C=C/CC/C=C/C=C/C=C/C=C/[C@H](O[C@@H]2O[C@H](C)[C@@H](O)[C@H](N(C)C)[C@@H]2O)C[C@@H]2O[C@](O)(C[C@@H](O)C[C@@H](O)[C@H](O)CC[C@@H](O)C[C@@H](O)CC(=O)O[C@H]1C)C[C@H](O)[C@H]2C(=O)O [Compound N23, N,N-dimethylnystatin A1] | 2.47 µg/mL | 4 µg/mL | 8 µg/mL | 8 µg/mL | 2 µg/mL | 4 µg/mL | 4 µg/mL | 214.20 µg/mL |  |  |  |  |  |  |  |  |  | 
CC1C=CC=CCCC=CC=CC=CC=CC(OC2OC(C)C(O)C(N(CCCN(C)C)CC3(O)OCC(O)C(O)C3O)C2O)CC2OC(O)(CC(O)C(O)CCC(O)CC(O)CC(O)CC(=O)OC(C)C(C)C1O)CC(O)C2C(=O)O (stereo not drawn) [Compound N30, N-fructosyl-N-[3-(N′,N′-dimethylamin)propyl]nystatin A1] | 5.79 µg/mL | 8 µg/mL | 16 µg/mL | 16 µg/mL | 8 µg/mL | 16 µg/mL | 8 µg/mL |  |  |  |  |  |  |  |  |  |  | 
CC1OC(O[C@H]2/C=C/C=C/C=C/C=C/CC/C=C/C=C/[C@H](C)[C@@H](O)[C@@H](C)[C@H](C)OC(=O)C[C@H](O)C[C@H](O)C[C@H](O)CC[C@@H](O)[C@H](O)CC3(O)C[C@H](O)[C@@H](C(=O)O)[C@H](C2)O3)C(O)C(NCc2ccccc2)C1O (stereo partly drawn) [Compound N21, N-benzylnystatin A1] | 2.32 µg/mL | 4 µg/mL | 4 µg/mL | 4 µg/mL |  | 4 µg/mL | 2 µg/mL |  | 188.56 µg/mL | 91.60 µg/mL | 91.9 ± 4.35 µg/mL | 68.3 ± 8.06 µg/mL | >100 µg/mL |  |  |  |  | 
CC1OC(O[C@H]2/C=C/C=C/C=C/C=C/CC/C=C/C=C/[C@H](C)[C@@H](O)[C@@H](C)[C@H](C)OC(=O)C[C@H](O)C[C@H](O)C[C@H](O)CC[C@@H](O)[C@H](O)CC3(O)C[C@H](O)[C@@H](C(=O)O)[C@H](C2)O3)C(O)C(NC(=O)[C@H](N)Cc2cccc3ccccc23)C1O (stereo partly drawn) [Compound N39] | 6.05 µg/mL | 8 µg/mL | 16 µg/mL | 16 µg/mL |  | 8 µg/mL | 8 µg/mL |  |  |  |  |  |  | >100 µg/mL | >100 µg/mL | >100 µg/mL |  | 
N-[3-(piperidin-1-yl)propionyl]nystatin A1 [Compound N44] | 2.95 µg/mL | 4 µg/mL | 8 µg/mL | 8 µg/mL |  | 4 µg/mL | 4 µg/mL |  |  | 209.39 µg/mL | >100 µg/mL | >100 µg/mL | >100 µg/mL |  |  |  | 0.95% | 
CC1OC(O[C@H]2/C=C/C=C/C=C/C=C/CC/C=C/C=C/[C@H](C)[C@@H](O)[C@@H](C)[C@H](C)OC(=O)C[C@H](O)C[C@H](O)C[C@H](O)CC[C@@H](O)[C@H](O)CC3(O)C[C@H](O)[C@@H](C(=O)O)[C@H](C2)O3)C(O)C(NC2CC(=O)N(CCN(C)C)C2=O)C1O (stereo partly drawn) [Compound N7, N—[N′-2-(N″,N″-dimethylamino)ethylsuccinimidyl]nystatin A1] | 3.99 µg/mL | 8 µg/mL | 8 µg/mL | 16 µg/mL | 4 µg/mL | 8 µg/mL | 8 µg/mL |  |  |  |  |  |  |  |  |  |  | 
CC1OC(O[C@H]2/C=C/C=C/C=C/C=C/CC/C=C/C=C/[C@H](C)[C@@H](O)[C@@H](C)[C@H](C)OC(=O)C[C@H](O)C[C@H](O)C[C@H](O)CC[C@@H](O)[C@H](O)CC3(O)C[C@H](O)[C@@H](C(=O)O)[C@H](C2)O3)C(O)C(NC2CC(=O)N(CCN3CCCCC3)C2=O)C1O (stereo partly drawn) [Compound N8, N—[N′-2-(piperidin-1-yl)ethylsuccinimidyl]nystatin A1] | 1.54 µg/mL | 2 µg/mL | 4 µg/mL | 4 µg/mL | 2 µg/mL | 2 µg/mL | 2 µg/mL |  |  | 150.73 µg/mL |  |  |  |  |  |  |  | 
CC1OC(O[C@H]2/C=C/C=C/C=C/C=C/CC/C=C/C=C/[C@H](C)[C@@H](O)[C@@H](C)[C@H](C)OC(=O)C[C@H](O)C[C@H](O)C[C@H](O)CC[C@@H](O)[C@H](O)CC3(O)C[C@H](O)[C@@H](C(=O)O)[C@H](C2)O3)C(O)C(NC(=O)[C@@H](N)Cc2ccccc2)C1O (stereo partly drawn) [Compound N34, N-L-phenylalanylnystatin A1] | 6.01 µg/mL | 8 µg/mL | 8 µg/mL | 8 µg/mL |  | 8 µg/mL | 4 µg/mL |  | >300 µg/mL |  | >100 µg/mL | >100 µg/mL |  |  |  |  |  | 0.02%
N—[N′-2-(pyrrolidin-1-yl)ethylsuccinimidyl]nystatin A1 [Compound N11] | 3.91 µg/mL | 8 µg/mL | 8 µg/mL | 8 µg/mL | 4 µg/mL | 8 µg/mL | 8 µg/mL |  |  |  |  |  |  |  |  |  |  | 
